Entries after “also recorded” stand apart in the source; their conditions may differ. Where a SMILES comes first, the peptide text is derived from it. Bridges are numbered along the chain shown (N, C = ends).
Columns and labels:
TEAD [1] = biological target: T1, TEAD (Homo sapiens, UniProt P28347); experiment: Mammalian surface display (SDGF vector, HEK-293 cells) TEAD-binding flow cytometry; conditions: for TEAD binding of cells displaying variant versus parent peptide: HEK-293 suspension cells transfected with SDGF constructs; for TEAD binding of HEK-293 cells expressing SDGF-peptide: stained with 200 nM AF647-Streptavidin-TEAD
T1 construct: GST; made in house; host or cells: Hi5 insect cells (baculovirus, BacMagic, pIEX-BAC3)

biotinylated TEAD = biological target: T2, biotinylated TEAD (Homo sapiens, UniProt P28347); experiment: Surface plasmon resonance (SPR) binding of soluble peptides to captured biotinylated TEAD; conditions: soluble peptides
T2 construct: GST; made in house; host or cells: Hi5 insect cells (baculovirus, BacMagic, pIEX-BAC3)

YAP-TEAD interaction = biological target: T3, YAP-TEAD interaction (Homo sapiens, UniProt P28347); experiment: YAP-TEAD disruption co-immunoprecipitation (Myc-TEAD resin, FLAG-YAP lysate); type: biochemical; conditions: for FLAG-YAP pull-down with Myc-TEAD resin in the presence of peptide: Silver stain and Western blot
T3 construct: expressed in transfected cells; host or cells: 293T cells (lysates)

YAP:TEAD dimers = biological target: T4, YAP:TEAD dimers (Homo sapiens, UniProt P28347); experiment: YAP:TEAD proximity ligation assay (PLA) in HeLa cells; type: cell-based; conditions: 5 μM peptide with 5 μM dfTAT
T4 construct: endogenous in cells; host or cells: HeLa cells
Experimental: Proximity Ligation Assay. […] HeLa cells can be seeded in an 8-well chamber slide (Nunc Lab-Tek II) in DMEM+10% FBS and 1× Pen/Strep, and can be grown overnight, reaching ˜50% confluence. Cells can be gently washed 3 times with PBS containing 1 mM CaCl2 and 0.5 mM MgCl2, then 2 times in serum-free DMEM. Wells (120 μL total) can receive either 5 μM (final) peptide in PBS, or PBS alone, and can also receive either 5 μM (final) dfTAT reagent in PBS, or PBS alone, before a 90 minute incubation at 37° C. and 5% CO2 in a humidified tissue culture incubator. After incubation, cells can be gently washed 3 times in PBS, followed by fixation at 4° C. for 10 minutes with 4% formaldehyde in PBS. […]
PLA can be performed using the Duolink In Situ Fluorescence (Far Red) kit according to manufacturer's instructions, using supplied buffers without substitution and at recommended volumes for 1 cm^2 samples. […] For quantitation of nuclear speckles in ImageJ, UV and Cy5.5 filtered images can be Z-projected (maximum intensity), and can be processed using a custom macro to identify nuclear boundaries (UV channel) and speckles (Cy5.5 channel). […]
Proximity ligation assay (PLA) in HeLa cells was performed using primary antibodies against YAP and TEAD, in which speckles (APC channel) overlapping DAPI-stained nuclei (UV channel) were produced. […] All P-values were determined by two-tailed T-test.

TEAD [2] = biological target: T1, TEAD; experiment: TEAD binding of SDGF-displayed peptides after exposure to reducing agent; conditions: 5 minutes, 20 nM TEAD
Experimental: Peptides of this disclosure were also tested to evaluate if binding to TEAD was affected by exposure of peptide to reducing conditions. […] Cultures were grown for two days followed by incubation in 10 mM GSH or 10 mM DTT. Finally, cells were stained with TEAD. FIG. 13 illustrates binding to TEAD after cells expressing SDGF-SEQ ID NO: 9 are exposed to a reducing agent. FIG. 13A illustrates a flow cytometry plot showing binding of HEK-293 suspension cells transfected with SDGF-SEQ ID NO: 1 (GFP) incubated for 5 minutes in PBS, 10 mM DTT, or 10 mM glutathione (GSH) before staining with 20 nM biotinylated TEAD and 20 nM AF647-streptavidin. FIG. 13B illustrates a flow cytometry plot showing binding of HEK-293 suspension cells transfected with SDGF-SEQ ID NO: 9 (GFP) incubated for 5 minutes in PBS, 10 mM DTT, or 10 mM glutathione (GSH) before staining with 20 nM biotinylated TEAD and 20 nM AF647-streptavidin.

[3] = biological target: T5, TEAD binding to surface-displayed YAP (Homo sapiens, UniProt P28347); experiment: Competitive binding of peptides to TEAD versus cell surface-displayed YAP (flow cytometry)
T5 construct: made in house; host or cells: TEAD: Hi5 insect cells
Experimental: FIG. 11D illustrates a flow cytometry plot of cells expressing SDGF-YAP that were incubated with 5 nM TEAD and then washed. Cells were immediately stained with AF647-streptavidin and analyzed for YAP-expressing cells that have bound TEAD. FIG. 11E illustrates a flow cytometry plot of cells expressing SDGF-YAP that were incubated with 5 nM TEAD and then washed. Cells were incubated on ice for 1 hour, stained with AF647-streptavidin and analyzed for YAP-expressing cells that have bound TEAD. FIG. 11F illustrates a flow cytometry plot of cells expressing SDGF-YAP that were incubated with 5 nM TEAD and then washed. […] FIG. 11G illustrates a flow cytometry plot of cells expressing SDGF-YAP that were incubated with 5 nM TEAD and then washed.

[4] = test system: 8×GTIIC (TEAD luciferase reporter); experiment: Cytosolic peptide expression with 8×GTIIC TEAD luciferase reporter; type: cell-based; conditions: mCherry-T2a-peptide co-transfected with FLAG-YAP and 8×GTIIC; vs. YAP only
Excerpt: Cytosolic Peptide Expression. Peptides, FLAG-tagged or not, can be cloned into a mammalian expression vector consisting of a CMV promoter, then a monocistronic mCherry-T2a-peptide sequence. These can be transfected, along with (where indicated) pFLAG-YAP1 and 8×GTIIC-luciferase (Addgene plasmid #34615) into 293T cells. 24 hrs post-transfection, cells can be either harvested for luminescence (ONE-Glo, Promega) or Western blot (anti-FLAG M2, Sigma). Protein Transfection with dfTAT Reagent. Solution was diluted to 50 μM in PBS for a 10× working stock, for a final concentration of 5 μM in culture wells. […] For confirmation of peptide cell penetration, 293T and HeLa cells can be plated in a 96-well plate in DMEM with 10% FBS, 1× penicillin/streptomycin (Pen/Strep) and grown overnight to ˜50% confluence. Cells can be gently washed 3 times with PBS containing 1 mM CaCl2) and 0.5 mM MgCl2, then 2 times in serum-free DMEM. Wells (50 μL total) received either 5 μM (final) peptide in PBS, or PBS alone, and can also receive either 5 μM (final) dfTAT reagent in PBS, or PBS alone, before a 60 minute incubation at 37° C. and 5% CO2 in a humidified tissue culture incubator. After incubation, cells can be gently washed 3 times in PBS, which can be followed by fixation at 4° C. for 10 minutes with 4% formaldehyde in PBS. […]

T1 sequence (P28347 209-426): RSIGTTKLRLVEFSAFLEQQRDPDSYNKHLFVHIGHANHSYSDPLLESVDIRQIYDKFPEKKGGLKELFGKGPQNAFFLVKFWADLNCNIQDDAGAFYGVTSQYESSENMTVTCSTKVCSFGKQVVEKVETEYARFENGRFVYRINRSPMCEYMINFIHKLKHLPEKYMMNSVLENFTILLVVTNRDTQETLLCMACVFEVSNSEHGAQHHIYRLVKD
T2 sequence (P28347 209-426): as above
T3 sequence (P28347 whole entry): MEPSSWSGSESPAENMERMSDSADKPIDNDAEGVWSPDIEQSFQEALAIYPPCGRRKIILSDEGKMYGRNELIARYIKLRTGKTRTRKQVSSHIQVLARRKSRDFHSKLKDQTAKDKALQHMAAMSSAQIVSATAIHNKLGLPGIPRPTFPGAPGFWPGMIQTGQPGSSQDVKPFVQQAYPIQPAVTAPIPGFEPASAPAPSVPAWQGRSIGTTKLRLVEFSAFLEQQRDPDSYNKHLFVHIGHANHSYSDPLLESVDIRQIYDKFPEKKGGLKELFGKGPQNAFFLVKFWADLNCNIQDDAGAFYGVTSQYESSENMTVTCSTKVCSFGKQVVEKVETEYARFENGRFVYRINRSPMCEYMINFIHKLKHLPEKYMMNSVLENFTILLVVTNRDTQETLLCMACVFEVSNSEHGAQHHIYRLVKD
T5 sequence (P28347 209-426): as the sequence (P28347 209-426) above
T4 sequence (P28347 whole entry): as the sequence (P28347 whole entry) above

## GSLERLKKCCNQGLDCEEARWKCELEAAFQGKNRETCLEEC [SEQ ID NO: 41]
TEAD [1]
  TEAD binding of cells displaying variant versus parent peptide: loss of binding to TEAD

## GSPDEYIERAKECCKKQDIQCCLRIFDESKDPNVMLICLFCP [SEQ ID NO: 11]
TEAD [1]; 20 nM TEAD, Extra Wash protocol
  TEAD binding with the extra wash step: diminished binding

## GSLERLKKCCNQGLDCEEARWKCELEALAQGKNRETCLEEC [SEQ ID NO: 42]
TEAD [1]
  TEAD binding of cells displaying variant versus parent peptide: loss of binding to TEAD

## CC[C@H](C)[C@@H]1NC(=O)[C@H](C)NC(=O)[C@H](CO)NC(=O)[C@@H]2CSSC[C@@H]3NC(=O)[C@H](CCC(N)=O)NC(=O)[C@H](CC(N)=O)NC(=O)[C@H](CC(N)=O)NC(=O)[C@H](CCC(N)=O)NC(=O)[C@H](CSSC[C@H](NC(=O)[C@H](CCC(N)=O)NC(=O)[C@H](CC(N)=O)NC(=O)[C@H](CC(=O)O)NC(=O)[C@H](Cc4ccc(O)cc4)NC(=O)[C@H](CC(C)C)NC(=O)CNC(=O)[C@H](Cc4ccccc4)NC(=O)[C@H](CO)NC(=O)CN)C(=O)N[C@@H](C)C(=O)N[C@@H]([C@@H](C)O)C(=O)N[C@@H](CO)C(=O)N[C@@H](CC(=O)O)C(=O)N[C@@H](C)C(=O)N2)NC(=O)[C@H](CCCCN)NC(=O)CNC(=O)[C@H](CCC(N)=O)NC(=O)CNC(=O)[C@H](CO)NC(=O)CNC(=O)[C@H]([C@@H](C)O)NC(=O)[C@H](Cc2c[nH]c4ccccc24)NC(=O)[C@H](Cc2ccc(O)cc2)NC(=O)[C@H](CCCCN)NC(=O)[C@H](CSSC[C@@H](C(=O)N[C@@H](Cc2ccc(O)cc2)C(=O)O)NC(=O)[C@H](CCCNC(=N)N)NC3=O)NC1=O [SEQ ID NO: 3] (H-GSFGLYDNQCATSDACSAICKYWTGSGQGKCQNNQCRCY-OH; disulfide 10-31, 16-36, 20-38)
Biotinylated TEAD
  affinity/binding to TEAD as compared to a peptide of SEQ ID NO: 1: lower binding affinity for TEAD
TEAD [1]
  TEAD binding of HEK-293 cells expressing SDGF-peptide: displayed binding to TEAD

## GSLERLKKSSNQGLDSEEARWKSELEALFQGKNRETSLEES [SEQ ID NO: 185]
TEAD [1]
  TEAD binding of cells displaying variant versus parent peptide: loss of binding to TEAD

## GSLERLKKCCNQGLDCEEARWKCEAEALFQGKNRETCLEEC [SEQ ID NO: 40]
TEAD [1]
  TEAD binding of cells displaying variant versus parent peptide: loss of binding to TEAD

## GSPDEYIERAKESSKKGDIQSSLRYFEESGDPNVMLISLFSP [SEQ ID NO: 184]
TEAD [1]
  TEAD binding of cells displaying variant versus parent peptide: loss of binding to TEAD

## GSPDEYIERAKECCKKGDIQCCLRYFEESGDPNVMLICLACP [SEQ ID NO: 7]
Biotinylated TEAD
  affinity/binding to TEAD as compared to a peptide of SEQ ID NO: 1: reduced affinity for TEAD
YAP-TEAD interaction
  FLAG-YAP pull-down with Myc-TEAD resin in the presence of peptide: not pulled down
TEAD [1]
  TEAD binding of cells displaying variant versus parent peptide: loss of binding to TEAD

## GSPDEYIERAKECCKKGDIQCCLRYFAESGDPNVMLICLFCP [SEQ ID NO: 4]
TEAD [1]
  TEAD binding of cells displaying variant versus parent peptide: loss of binding to TEAD

## GSPDEYIERAKECCKKGDIQCCLRYFEESGDPNVALICLFCP [SEQ ID NO: 6]
TEAD [1]
  TEAD binding of cells displaying variant versus parent peptide: loss of binding to TEAD

## GSLERLKKCCNQGLDCEEARWKCELEALFQGKNRETCLEEC [SEQ ID NO: 2]
TEAD [1]
  TEAD binding of HEK-293 cells expressing SDGF-peptide: displayed binding to TEAD

## GSPDEYIERAKECCKKQDIQCCLRIFDESKDPNVMLICLFCW [SEQ ID NO: 9]
YAP:TEAD dimers
  YAP:TEAD PLA speckles per nucleus: significantly reduces YAP:TEAD dimers in the nucleus; also recorded: significantly reduced
TEAD [2]; 10 mM DTT
  binding to TEAD after reducing agent treatment: no loss in binding to TEAD
TEAD [2]; 10 mM GSH
  binding to TEAD after reducing agent treatment: no loss in binding to TEAD
[3]; YAP-displaying cells first incubated with TEAD prior to addition of peptide
  TEAD binding to YAP-displaying cells: near complete elimination of TEAD binding to YAP
[3]; cells incubated with peptide, then 5 nM TEAD
  TEAD binding to YAP-displaying cells: near complete elimination of TEAD binding to YAP
TEAD [1]; 20 nM TEAD, Normal and Extra Wash protocols
  mean fluorescence intensity (MFI) of TEAD staining normalized to SEQ ID NO: 1: performed the best

## GSPDEYIERAKECCKKGDIQCCLRYFEESGDPNVMLICLFCP [SEQ ID NO: 1]
TEAD [2]; 10 mM DTT
  binding to TEAD after reducing agent treatment: partial loss in binding to TEAD
TEAD [2]; 10 mM GSH
  binding to TEAD after reducing agent treatment: no loss in binding to TEAD
YAP-TEAD interaction
  FLAG-YAP pull-down with Myc-TEAD resin in the presence of peptide: not pulled down
YAP-TEAD interaction; dilution series of peptide, Western blot
  inhibition of FLAG-YAP binding to Myc-TEAD resins: dose-dependent inhibition
TEAD [1]; 20 nM TEAD concentration and 2-step staining
  TEAD binding profile of displayed peptide: apparent but weak
TEAD [1]
  TEAD binding of HEK-293 cells expressing SDGF-peptide: displayed binding to TEAD

## GSPDEYIERAKECCKKGDIQCCLRYFEESGDPNVMLICAFCP [SEQ ID NO: 5]
Biotinylated TEAD
  affinity/binding to TEAD as compared to a peptide of SEQ ID NO: 1: reduced affinity for TEAD
TEAD [1]
  TEAD binding of cells displaying variant versus parent peptide: marginal loss of binding to TEAD

## GSPDEYIERAKECCKKGDIQCCLRIFDESKDPNVMLICLFCW [SEQ ID NO: 12]
[4]
  TEAD luciferase reporter activity (relative luminescence units): reduced

— patent US11548923B2, “Peptide compositions and methods of use thereof for disrupting TEAD interactions” (Fred Hutchinson Cancer Center, priority 2017, dated 2023)
